Source: patent US12545686B2, “Polymorphic forms of (s)-n-(3-bromo-2-fluorophenyl)-7-((4-methylpiperazin-1-yl)methyl)-7,8-dihydro-[1,4]dioxino[2,3-g]quinazolin-4-amine as EGFR inhibitors” (ERASCA, INC., priority 2021, dated 2026)

Columns and labels:
[1] = target: EGFR (Homo sapiens, UniProt P00533); conditions: as disclosed in WO 2020/190765; cited from earlier work
[2] = pH dependent solubility tests in 0.1 M HCl, citrate buffer and USP phosphate buffers; assay type: physicochemical; conditions: in 1.0 ml of 0.1M HCl
Experimental: pH dependent solubility tests were conducted in 0.1 M HCl, in citrate buffer, and in USP phosphate buffers with nominal pH values of 6.8 and 7.4. Solubility tests at pH values below 5 failed because all compounds dissolved during the equilibration phase.

[3] = as disclosed in WO 2020/190765; cited from earlier work

EGFR, sequence (P00533 25-1210): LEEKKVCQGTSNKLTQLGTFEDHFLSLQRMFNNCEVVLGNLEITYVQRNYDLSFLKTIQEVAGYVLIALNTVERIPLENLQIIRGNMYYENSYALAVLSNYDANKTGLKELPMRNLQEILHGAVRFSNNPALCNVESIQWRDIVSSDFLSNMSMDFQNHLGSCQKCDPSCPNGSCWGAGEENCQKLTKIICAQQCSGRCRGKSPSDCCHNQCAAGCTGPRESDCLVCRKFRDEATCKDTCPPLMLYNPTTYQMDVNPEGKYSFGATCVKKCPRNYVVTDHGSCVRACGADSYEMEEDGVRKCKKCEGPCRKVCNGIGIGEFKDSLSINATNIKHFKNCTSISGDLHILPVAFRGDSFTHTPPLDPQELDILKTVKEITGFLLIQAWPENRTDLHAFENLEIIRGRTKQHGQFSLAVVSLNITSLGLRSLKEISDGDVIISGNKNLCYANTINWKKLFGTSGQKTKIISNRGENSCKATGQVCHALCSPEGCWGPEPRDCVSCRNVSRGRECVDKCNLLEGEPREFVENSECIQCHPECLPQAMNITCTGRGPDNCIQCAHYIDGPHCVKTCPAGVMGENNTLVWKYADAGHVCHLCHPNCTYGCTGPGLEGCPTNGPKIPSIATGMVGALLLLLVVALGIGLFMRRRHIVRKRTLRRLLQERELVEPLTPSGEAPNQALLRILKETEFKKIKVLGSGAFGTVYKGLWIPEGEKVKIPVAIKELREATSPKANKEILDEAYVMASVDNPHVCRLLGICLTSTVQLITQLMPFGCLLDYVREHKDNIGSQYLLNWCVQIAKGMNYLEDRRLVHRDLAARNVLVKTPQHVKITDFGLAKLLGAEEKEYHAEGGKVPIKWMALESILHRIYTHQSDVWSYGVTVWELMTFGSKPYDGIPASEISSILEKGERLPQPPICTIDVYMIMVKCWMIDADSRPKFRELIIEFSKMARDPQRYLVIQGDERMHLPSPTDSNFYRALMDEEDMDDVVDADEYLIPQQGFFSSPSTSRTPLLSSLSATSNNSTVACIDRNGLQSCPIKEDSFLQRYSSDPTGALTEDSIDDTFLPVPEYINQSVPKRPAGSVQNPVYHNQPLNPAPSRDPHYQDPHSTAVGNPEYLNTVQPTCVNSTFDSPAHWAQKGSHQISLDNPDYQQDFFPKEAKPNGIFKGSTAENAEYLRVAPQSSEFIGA

Amount of compound that easily dissolves (approximate test) [2]: ≥ 55 mg
Structure (SMILES): CN1CCN(C[C@H]2COc3cc4ncnc(Nc5cccc(Br)c5F)c4cc3O2)CC1 [Compound (I), (S)—N-(3-bromo-2-fluorophenyl)-7-((4-methylpiperazin-1-yl)methyl)-7,8-dihydro-[1,4]dioxino[2,3-g]quinazolin-4-amine]
EGFR inhibitory activity [1]: good EGFR inhibitory activity
Brain penetration capability [3]: brain penetration capability
